Format in all cases: biochemical
The target in assay [1] is LCK (Homo sapiens, UniProt P06239). Nature of the assay: Inhibition of a panel of kinases, in vitro HotSpot kinase assay: LCK. The settings on record: D-compounds panel data; 1 μM ATP; read-out: IC50 LCK.
Assay [2] concerns the target T1, JAK3 (Homo sapiens, UniProt P52333).
T1 sequence (P52333 1-1124): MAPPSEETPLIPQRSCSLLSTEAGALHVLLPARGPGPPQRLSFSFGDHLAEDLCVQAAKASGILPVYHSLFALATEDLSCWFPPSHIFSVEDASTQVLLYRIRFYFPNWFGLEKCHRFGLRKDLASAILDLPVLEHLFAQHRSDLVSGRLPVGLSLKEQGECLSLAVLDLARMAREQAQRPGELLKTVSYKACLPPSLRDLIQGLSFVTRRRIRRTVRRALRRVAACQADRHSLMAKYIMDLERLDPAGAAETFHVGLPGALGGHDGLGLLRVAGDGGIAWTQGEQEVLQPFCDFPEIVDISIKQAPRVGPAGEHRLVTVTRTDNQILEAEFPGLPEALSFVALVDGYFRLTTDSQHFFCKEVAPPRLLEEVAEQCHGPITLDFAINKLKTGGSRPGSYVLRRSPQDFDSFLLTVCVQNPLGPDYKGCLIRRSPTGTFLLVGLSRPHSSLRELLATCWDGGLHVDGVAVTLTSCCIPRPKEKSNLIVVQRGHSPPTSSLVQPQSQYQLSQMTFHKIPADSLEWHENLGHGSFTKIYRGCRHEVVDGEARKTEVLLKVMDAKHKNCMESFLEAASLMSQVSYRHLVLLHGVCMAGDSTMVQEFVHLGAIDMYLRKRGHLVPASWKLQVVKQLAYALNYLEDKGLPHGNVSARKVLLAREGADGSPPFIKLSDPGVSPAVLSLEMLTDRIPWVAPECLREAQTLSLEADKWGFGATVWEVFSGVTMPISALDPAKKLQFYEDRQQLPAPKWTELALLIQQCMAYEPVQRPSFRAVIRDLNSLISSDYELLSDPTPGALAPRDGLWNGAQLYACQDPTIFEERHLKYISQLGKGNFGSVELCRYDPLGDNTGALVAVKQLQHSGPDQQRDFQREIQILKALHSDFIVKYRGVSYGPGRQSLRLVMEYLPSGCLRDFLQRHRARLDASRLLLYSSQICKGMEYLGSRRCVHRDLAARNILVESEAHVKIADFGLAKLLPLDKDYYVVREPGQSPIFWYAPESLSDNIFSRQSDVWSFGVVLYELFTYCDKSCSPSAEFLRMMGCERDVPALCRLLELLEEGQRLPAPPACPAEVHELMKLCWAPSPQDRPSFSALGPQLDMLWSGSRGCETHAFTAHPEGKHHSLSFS
Nature of the assay: Inhibition of a panel of kinases, in vitro HotSpot kinase assay: JAK3. The settings on record: D-compounds panel data; 1 μM ATP; read-out: IC50 JAK3.

The target of assay [3] is T2, TEC (Homo sapiens, UniProt P42680).
T2 sequence (P42680 1-631): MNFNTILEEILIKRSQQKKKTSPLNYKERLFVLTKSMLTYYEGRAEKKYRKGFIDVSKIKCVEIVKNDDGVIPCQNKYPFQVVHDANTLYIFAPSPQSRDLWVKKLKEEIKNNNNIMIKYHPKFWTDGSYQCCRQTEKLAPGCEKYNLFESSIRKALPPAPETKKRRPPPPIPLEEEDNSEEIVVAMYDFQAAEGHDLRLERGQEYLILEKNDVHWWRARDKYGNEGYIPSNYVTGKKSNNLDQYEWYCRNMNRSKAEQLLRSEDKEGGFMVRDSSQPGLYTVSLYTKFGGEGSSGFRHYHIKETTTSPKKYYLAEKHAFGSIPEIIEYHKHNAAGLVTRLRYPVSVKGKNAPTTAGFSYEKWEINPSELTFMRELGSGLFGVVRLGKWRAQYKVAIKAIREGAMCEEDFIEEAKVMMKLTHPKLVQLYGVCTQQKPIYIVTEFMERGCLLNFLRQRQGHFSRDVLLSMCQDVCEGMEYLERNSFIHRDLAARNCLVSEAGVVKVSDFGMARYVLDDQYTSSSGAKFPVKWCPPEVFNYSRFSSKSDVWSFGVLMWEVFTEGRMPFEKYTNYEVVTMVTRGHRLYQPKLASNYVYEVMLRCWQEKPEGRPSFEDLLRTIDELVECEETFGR
Nature of the assay: Inhibition of a panel of kinases, in vitro HotSpot kinase assay: TEC. The settings on record: D-compounds panel data; 1 μM ATP. On the procedure:
(§1) The degree of inhibition of a panel of kinases is determined using the in vitro HotSpot kinase assay (purified enzymes, ^33P-ATP, an appropriate substrate and 1 μM ATP).

In assay [4] the target is T3, ITK (Homo sapiens, UniProt Q08881).
T3 sequence (Q08881 1-620): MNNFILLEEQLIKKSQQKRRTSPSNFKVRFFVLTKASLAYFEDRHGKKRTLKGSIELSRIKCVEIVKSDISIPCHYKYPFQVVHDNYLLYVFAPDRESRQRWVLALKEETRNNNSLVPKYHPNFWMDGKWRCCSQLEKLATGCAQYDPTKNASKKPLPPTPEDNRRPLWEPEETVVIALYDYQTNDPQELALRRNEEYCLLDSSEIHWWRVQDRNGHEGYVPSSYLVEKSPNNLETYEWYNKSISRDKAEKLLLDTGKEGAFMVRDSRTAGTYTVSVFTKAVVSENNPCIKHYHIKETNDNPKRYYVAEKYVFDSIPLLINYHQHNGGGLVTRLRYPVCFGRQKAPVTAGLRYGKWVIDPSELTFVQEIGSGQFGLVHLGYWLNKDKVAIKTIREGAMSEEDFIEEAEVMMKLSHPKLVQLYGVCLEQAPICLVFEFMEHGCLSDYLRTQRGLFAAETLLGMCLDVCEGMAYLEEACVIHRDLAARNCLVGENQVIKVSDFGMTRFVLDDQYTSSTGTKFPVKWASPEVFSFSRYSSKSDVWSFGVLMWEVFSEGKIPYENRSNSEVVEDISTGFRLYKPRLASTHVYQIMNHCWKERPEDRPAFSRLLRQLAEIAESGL
In words: Inhibition of a panel of kinases, in vitro HotSpot kinase assay: ITK. The settings on record: D-compounds panel data; 1 μM ATP. How it is done:
as §1

The target in assay [5] is SRC (Homo sapiens, UniProt P12931). In words: Inhibition of a panel of kinases, in vitro HotSpot kinase assay: SRC. The settings on record: D-compounds panel data; 1 μM ATP. How it is done: as §1
SRC, sequence (P12931 whole entry): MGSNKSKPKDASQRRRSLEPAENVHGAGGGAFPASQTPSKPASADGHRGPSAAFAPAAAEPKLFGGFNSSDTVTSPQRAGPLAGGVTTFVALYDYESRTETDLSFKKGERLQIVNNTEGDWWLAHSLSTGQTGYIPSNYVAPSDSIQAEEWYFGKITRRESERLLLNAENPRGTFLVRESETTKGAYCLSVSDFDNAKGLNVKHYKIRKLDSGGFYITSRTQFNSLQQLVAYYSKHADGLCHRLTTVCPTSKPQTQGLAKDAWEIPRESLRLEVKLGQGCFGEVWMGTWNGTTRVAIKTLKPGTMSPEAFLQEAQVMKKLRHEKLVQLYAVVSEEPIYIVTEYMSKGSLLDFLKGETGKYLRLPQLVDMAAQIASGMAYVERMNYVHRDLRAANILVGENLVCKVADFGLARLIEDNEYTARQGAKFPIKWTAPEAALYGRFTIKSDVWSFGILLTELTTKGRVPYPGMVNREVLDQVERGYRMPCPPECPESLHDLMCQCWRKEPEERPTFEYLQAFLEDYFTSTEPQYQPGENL
Assay [6] has as its target EGFR (Homo sapiens, UniProt P00533). Nature of the assay: Inhibition of a panel of kinases, in vitro HotSpot kinase assay: EGFR. The settings on record: D-compounds panel data; 1 μM ATP. On the procedure: as §1

Where only a bound is given, the exact number is not on record here.

LCK, sequence (P06239 whole entry): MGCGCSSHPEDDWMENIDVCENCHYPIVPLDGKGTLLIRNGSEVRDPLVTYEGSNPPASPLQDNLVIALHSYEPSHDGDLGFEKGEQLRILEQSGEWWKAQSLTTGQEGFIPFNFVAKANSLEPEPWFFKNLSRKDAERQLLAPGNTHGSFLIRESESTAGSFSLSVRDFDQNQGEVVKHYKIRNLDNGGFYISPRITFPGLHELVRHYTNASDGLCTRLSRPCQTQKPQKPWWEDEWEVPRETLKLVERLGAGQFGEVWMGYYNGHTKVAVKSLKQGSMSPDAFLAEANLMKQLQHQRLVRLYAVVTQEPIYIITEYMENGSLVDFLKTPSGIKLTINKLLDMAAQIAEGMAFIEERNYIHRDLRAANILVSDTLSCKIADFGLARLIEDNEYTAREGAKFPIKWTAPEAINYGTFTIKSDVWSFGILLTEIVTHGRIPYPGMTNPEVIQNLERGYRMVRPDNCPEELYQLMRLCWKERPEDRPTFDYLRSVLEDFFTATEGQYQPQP
EGFR, sequence (P00533 25-1210): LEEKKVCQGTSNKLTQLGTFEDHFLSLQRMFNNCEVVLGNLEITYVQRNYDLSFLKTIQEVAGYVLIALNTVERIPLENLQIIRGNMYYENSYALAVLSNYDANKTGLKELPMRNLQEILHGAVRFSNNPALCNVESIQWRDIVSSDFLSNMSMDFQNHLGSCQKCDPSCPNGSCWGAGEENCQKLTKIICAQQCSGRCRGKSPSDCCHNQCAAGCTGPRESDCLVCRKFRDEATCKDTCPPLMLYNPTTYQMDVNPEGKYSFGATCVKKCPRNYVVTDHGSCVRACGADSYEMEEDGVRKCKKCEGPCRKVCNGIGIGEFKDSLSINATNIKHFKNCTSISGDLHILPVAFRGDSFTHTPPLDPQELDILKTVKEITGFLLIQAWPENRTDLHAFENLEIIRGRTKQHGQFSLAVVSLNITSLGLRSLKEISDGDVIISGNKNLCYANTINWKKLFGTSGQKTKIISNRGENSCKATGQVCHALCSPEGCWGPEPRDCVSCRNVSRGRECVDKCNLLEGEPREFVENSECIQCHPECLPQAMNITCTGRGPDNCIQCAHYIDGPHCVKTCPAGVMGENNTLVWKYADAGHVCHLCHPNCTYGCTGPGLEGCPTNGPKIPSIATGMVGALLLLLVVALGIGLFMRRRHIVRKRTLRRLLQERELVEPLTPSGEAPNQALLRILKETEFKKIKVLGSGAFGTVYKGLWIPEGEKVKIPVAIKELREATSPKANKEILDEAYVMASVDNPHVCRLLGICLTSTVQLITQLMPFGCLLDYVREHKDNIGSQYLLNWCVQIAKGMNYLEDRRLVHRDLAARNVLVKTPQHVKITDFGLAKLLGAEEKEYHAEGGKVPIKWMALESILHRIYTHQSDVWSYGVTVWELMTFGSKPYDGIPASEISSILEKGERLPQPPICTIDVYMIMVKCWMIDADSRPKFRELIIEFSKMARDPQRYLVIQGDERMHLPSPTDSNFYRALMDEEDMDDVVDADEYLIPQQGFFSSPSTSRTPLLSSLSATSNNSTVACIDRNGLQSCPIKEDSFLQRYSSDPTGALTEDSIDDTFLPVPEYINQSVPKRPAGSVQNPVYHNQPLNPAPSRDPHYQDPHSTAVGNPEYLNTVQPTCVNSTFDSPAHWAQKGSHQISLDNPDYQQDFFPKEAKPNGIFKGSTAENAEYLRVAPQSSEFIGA

`C[C@@H]1[C@H](NC(=O)c2ccc(C3CC3)cc2)CCCN1c1cnc(C(N)=O)c(Nc2ccc(OC3CCN4CCCC4C3)cc2)n1` (stereo partly drawn) [Example D-211, 5-[(2R,3R)-3-(4-cyclopropylbenzamido)-2-methylpiperidin-1-yl]-3-{[4-(octahydroindolizin-7-yloxy)phenyl]amino}pyrazine-2-carboxamide]: the IC50 was 10 to 100 nM in assay [1]; 100 to 1000 nM in assay [2]; at most 10 nM in assay [3]; 100 to 1000 nM in assay [4]; 10 to 100 nM in assay [5]; 1000 to 10000 nM in assay [6].

As for `C[C@@H]1[C@H](NC(=O)c2ccc(C(C)(C)C)cn2)CCCN1c1cnc(C(N)=O)c(Nc2cnn(C)c2)n1` [Example D-208, 5-[(2R,3R)-3-(5-tert-butylpyridine-2-amido)-2-methylpiperidin-1-yl]-3-[(1-methyl-1H-pyrazol-4-yl)amino]pyrazine-2-carboxamide], the concentration for half-maximal inhibition (IC50) in assay [1] was 100 to 1000 nM; in assay [2], 1000 to 10000 nM; in assay [3], 10 to 100 nM; in assay [4] it was 100 to 1000 nM; in assay [5], 10 to 100 nM; in assay [6], 1000 to 10000 nM.

For the compound `Cn1cc(Nc2nc(N3C4CCC(NC(=O)c5ccc(C6CC6)cc5)C3CC4)cnc2C(N)=O)cn1` (single isomer, unassigned) [Example D-199, 5-[2-(4-cyclopropylbenzamido)-8-azabicyclo[3.2.1]octan-8-yl]-3-[(1-methyl-1H-pyrazol-4-yl)amino]pyrazine-2-carboxamide], the IC50 in assay [1] was over 10000 nM; in assay [2], 1000 to 10000 nM; in assay [3], 1000 to 10000 nM; in assay [4], over 10000 nM; in assay [5], 1000 to 10000 nM; in assay [6], over 10000 nM.

Consider `C[C@@H]1[C@H](NC(=O)N(C)C)CCCN1c1cnc(C(N)=O)c(Nc2ccc(N3CCN(C4CCCC4)CC3)cc2)n1` [Example D-182, 3-{[4-(4-cyclopentylpiperazin-1-yl)phenyl]amino}-5-[(2R,3R)-3-[(dimethylcarbamoyl)amino]-2-methylpiperidin-1-yl]pyrazine-2-carboxamide], for which the concentration for half-maximal inhibition (IC50) was 10 to 100 nM in assay [1]; 100 to 1000 nM in assay [2]; 100 to 1000 nM in assay [3]; 100 to 1000 nM in assay [4]; 10 to 100 nM in assay [5]; 100 to 1000 nM in assay [6].

For `CC(C)c1ccc(C(=O)N[C@@H]2CCCN(c3cnc(C(N)=O)c(Nc4cnn(C)c4)n3)C2)cc1` [Example D-222, 3-[(1-Methyl-1H-pyrazol-4-yl)amino]-5-[(3R)-3-[4-(propan-2-yl)benzamido]piperidin-1-yl]pyrazine-2-carboxamide], the IC50 in assay [1] was 1000 to 10000 nM; in assay [2] it was over 10000 nM; in assay [3], 10 to 100 nM; in assay [4], over 10000 nM; in assay [5], 1000 to 10000 nM; in assay [6], over 10000 nM.

For the compound `C[C@@H]1[C@H](NC(=O)c2ccc(C3CC3)nc2)CCCN1c1cnc(C(N)=O)c(Nc2cnn(C)c2)n1` [Example D-18, 5-[(2R,3R)-3-(6-cyclopropylpyridine-3-amido)-2-methylpiperidin-1-yl]-3-[(1-methyl-1H-pyrazol-4-yl)amino]pyrazine-2-carboxamide], the IC50 in assay [1] lay within 100 to 1000 nM; in assay [2], 1000 to 10000 nM; in assay [3] it was 10 to 100 nM; in assay [4], 100 to 1000 nM; in assay [5], 10 to 100 nM; in assay [6], 1000 to 10000 nM.

Regarding `C[C@@H]1[C@H](NC(=O)c2ccc(OC3CC3)cc2)CCCN1c1cnc(C(N)=O)c(Nc2cnn(C)c2)n1` [Example D-219, 5-[(2R,3R)-3-(4-cyclopropoxybenzamido)-2-methylpiperidin-1-yl]-3-[(1-methyl-1H-pyrazol-4-yl)amino]pyrazine-2-carboxamide], the half-maximal inhibitory concentration (IC50) in assay [1] is 10 to 100 nM; in assay [2], 1000 to 10000 nM; in assay [3], at most 10 nM; in assay [4], 100 to 1000 nM; in assay [5], 10 to 100 nM; in assay [6] it was 1000 to 10000 nM.

As for `C[C@@H]1[C@H](NC(=O)c2cnc(C3CC3)cn2)CCCN1c1cnc(C(N)=O)c(Nc2cnn(C)c2)n1` [Example D-205, 5-[(2R,3R)-3-(5-cyclopropylpyrazine-2-amido)-2-methylpiperidin-1-yl]-3-[(1-methyl-1H-pyrazol-4-yl)amino]pyrazine-2-carboxamide], the IC50 in assay [1] is 10 to 100 nM; in assay [2], 1000 to 10000 nM; in assay [3], at most 10 nM; in assay [4], 100 to 1000 nM; in assay [5], 10 to 100 nM; in assay [6], 100 to 1000 nM.

Take `Cn1cc(Nc2nc(N3C4CCC(NC(=O)c5ccc(C6CC6)cc5)C3CC4)cnc2C(N)=O)cn1` (single isomer, unassigned) [Example D-201, 5-[2-(4-cyclopropylbenzamido)-8-azabicyclo[3.2.1]octan-8-yl]-3-[(1-methyl-1H-pyrazol-4-yl)amino]pyrazine-2-carboxamide]: the IC50 was 100 to 1000 nM in assay [1]; 1000 to 10000 nM in assay [2]; at most 10 nM in assay [3]; 1000 to 10000 nM in assay [4]; 10 to 100 nM in assay [5]; 1000 to 10000 nM in assay [6].

On to `C[C@@H]1[C@H](NC(=O)c2ccc3c(c2)OC(F)(F)O3)CCCN1c1cnc(C(N)=O)c(Nc2cnn(C)c2)n1` [Example D-216, 5-[(2R,3R)-3-(2,2-difluoro-2H-1,3-benzodioxole-5-amido)-2-methylpiperidin-1-yl]-3-[(1-methyl-1H-pyrazol-4-yl)amino]pyrazine-2-carboxamide], for which the IC50 was 100 to 1000 nM in assay [1]; 100 to 1000 nM in assay [2]; at most 10 nM in assay [3]; 100 to 1000 nM in assay [4]; 10 to 100 nM in assay [5]; 1000 to 10000 nM in assay [6].

For the origin of these results see patent US20210070748A1, “INHIBITORS OF BRUTONS TYROSINE KINASE” (Pharmacyclics LLC, priority 2015, published 2021).
